Results taken from US11752159B2, “Compositions and methods for suppressing or reducing systemic immune response in a subject” (THE TRUSTEES OF THE UNIVERSITY OF PENNSYLVANIA, priority 2015, dated 2023).

Key:
Tregs = assay: Treg % in blood and spleen after topical vitamin D3 analogs; assay type: in vivo, mice; conditions: topical MC903, summary statement of Example 6
Text: FIGS. 10A-10B comprise bar graphs illustrating data derived from topically treating mice with EtOH or EB1089 (0.04 nmol/ear) for 5 days and bleeding them on Day 7. Treg % from (FIG. 10A) blood and (FIG. 10B) spleen are illustrated. N=3 mice/group. *p<0.01 by Student t-test.
(§1) VDR stimulation of keratinocytes led to TSLP production, which in certain embodiments caused increase in Treg numbers. The effects of two vitamin D3 analogs (22-Oxacalcitriol, also known as 22-OXA, and EB1089) on TSLP production and Treg numbers were evaluated. Similarly to MC903, 22-OXA and EB1089 were applied to the ear skin bilaterally at a dose of 2 nmol/ear dissolved in ethanol. After 5 days of treatment, the mice were bled and serum TSLP levels were measured. […] To avoid the toxic effect, the dose of 22-OXA and EB1089 was lowered to a point where morbidity and mortality of mice was not observed (0.4 nmol/ear for 22-OXA; 0.04 nmol/ear for EB1089). At this dose, no increase in TSLP level was detected in 22-OXA-treated mice (FIG. 9B).

[1] = Toxicity (morbidity and mortality) of topical vitamin D3 analogs in mice; assay type: in vivo; conditions: mouse, in vivo
Experimental: as §1

[2] = tested on: regulatory T cells (Tregs); assay: Kinetics of systemic Treg levels after topical MC903 treatment; assay type: in vivo, mice; conditions: Day 15, after cessation of topical treatment
Text: FIG. 3A-3C comprise graphs illustrating data derived from topical treatment of B6 mice with EtOH or MC903 (2 nmol) until […]. Mice were taken at different time points post treatment initiation as indicated. FIG. 3A is a graph illustrating the percentage of Tregs out of CD4+ T cells in the spleen and blood of B6 mice over 18 days. FIG. 3B illustrates the absolute numbers of Tregs in the spleen of B6 mice over 18 days. FIG. 3C illustrates the serum thymic stromal lymphopoietin (TSLP) level change over time in B6 mice over 18 days.
Next, the kinetics of the systemic increase in Treg levels was investigated after topical MC903 treatment (treatment stopped on Day 7). The absolute number and the fraction of Tregs increased to a peak between days 6 and 9 and gradually declined thereafter in the spleen and the blood of MC903-treated mice (FIGS. 3A-3B). Circulating TSLP levels peaked at Day 6 and fell abruptly by Day 9 (FIG. 3C).

B6 mice [3] = assay: K/BxN serum-induced arthritis mouse model, topical MC903; assay type: in vivo
Experimental: FIGS. 8A-8B comprise graphs illustrating data derived from injecting B6 mice with 75 μl of serum from K/B×N mice on Days 0 and 2, and topically treating the mice with MC903 starting at Day 0. FIG. 8A illustrates the percentage of Tregs in blood of B6 mice determined on Day 8 post MC903 treatment in comparison with EtOH treatment. FIG. 8B illustrates the change of ankle thickness over time after B6 mice were injected with 75 μl of serum from K/B×N mice on Days 0 and 2, and were topically treated with MC903 starting at Day 0. Ankle thickness was measured twice a week and plotted as % maximal ankle thickness of each mouse. N=3 mice/group. Whether MC903 treatment can attenuate joint swelling in a mouse model of rheumatoid arthritis was tested in the following experiment. In this model, serum from arthritic mice (K/B×N) is injected into normal wildtype mice. […] Mice were treated topically with MC903 or EtOH (daily) and injected with arthritogenic serum (on Days 0 and 2).

C57BL6 mice = assay: High fat diet (HFD) type II diabetes mouse model, topical MC903; assay type: in vivo; conditions: topical three times a week every other week, vs ethanol
Experimental: FIG. 13 comprises a graph illustrating the finding that topical administration of MC903 improves overnight fasting glucose levels in mice fed with 12 weeks of high fat diet (HFD).
Topical administration of MC903 was evaluated in a model of high fat diet (HFD) type II diabetes mice. Male C57BL6 mice, which were 8 weeks at the onset of the study, were used. The mice were fed a high fat diet (45 kcal % of fat; research diet No. D12451, OpenSource Diets) for 20 weeks. During this period, the mice were topically administered ethanol or MC903 three times a week (Monday, Wednesday and Friday), every other week, for the duration of the experiment.

B6 mice [4] = assay: Experimental allergic encephalitis (EAE) mouse model of multiple sclerosis, topical MC903; assay type: in vivo; conditions: topical daily starting 1 day before disease induction, compared to EtOH-treated mice
Experimental: FIG. 7 illustrates the clinical score difference among B6 mice topically treated with EtOH or MC903 daily for 2 weeks. The B6 mice were injected with myelin oligodendrocyte glycoprotein (MOG) peptide emulsified in complete Freund's adjuvant (CFA), then received Pertussis toxin intraperitoneally at the time of immunization and 48 h later. The mice were treated with topical EtOH or MC903 daily for 2 weeks. Mice were clinically scored on a five-point scale for signs of disease on the indicated days. N=8 mice/group. P=0.06 by two-way Analysis of variance (ANOVA). To test whether topical MC903 treatment was effective at treating multiple sclerosis (MS), the effect of MC903 in reducing clinical severity of a mouse model of MS known as experimental allergic encephalitis (EAE). Mice were topically treated daily with MC903 starting 1 day before disease induction. […] Thus, topical MC903 treatment might also be beneficial in the treatment of multiple sclerosis.

TSLP = assay: Systemic TSLP induction by topical vitamin D3 analogs (ELISA); assay type: in vivo, mice; conditions: topical, ear skin bilaterally, 2 nmol/ear in ethanol, after 5 days of treatment

Which results are given for `C=C1/C(=C\C=C2/CCC[C@]3(C)[C@@H]([C@H](C)/C=C/[C@@H](O)C4CC4)CC[C@@H]23)C[C@@H](O)C[C@@H]1O` [MC903, 26,27-cyclo-22-ene-1α,24S-dihydroxyvitamin D3]?
systemic Treg numbers (Tregs): increase systemic Treg numbers; systemic toxicity [1]: without any apparent systemic toxicity; Treg levels versus EtOH-treated group by Day 15 [2]: no differences; joint swelling and erythema after Day 7 (B6 mice [3]; concomitant with the elevated Treg percentages): quick reduction; circulating Treg levels (B6 mice [3]; mice injected with arthritogenic serum, topical daily): increased; overnight fasting glucose levels (C57BL6 mice): improved overnight fasting glucose levels; clinical severity of EAE (B6 mice [4]): attenuated clinical severity; serum TSLP levels (TSLP): can induce TSLP production
